Measured values as given in patent publication US8709381B2, “Compound containing a carbon or an oxygen isotope, preparation and use thereof, and composition comprising thereof” (Beijing Top Grade Medical Equipment Co., Ltd, priority 2010, dated 2014).

How the values were obtained:
porphyrin synthesis = settings: in vivo
Text: Example 4 relates to a study of imaging of porphyrin synthesis in-vivo.
Porphyrin plays an important role in an organism. It is important for the study of physiological conditions, biochemical condition, and diseases to know the porphyrin synthesis in vivo. 5-ALA is a precursor of the porphyrin synthesis. After it is irradiated by photons of 50 MV with a dosage of 30 Gy (gray), a ^12C atom of the 5-ALA molecule is converted into an ^11C positron nuclide and a ^16O atom therein is converted into an ^15O positron nuclide.

[1] = fluorescence analysis of structure after photon irradiation; assay type: physicochemical; settings: 3 mg irradiated by 50 MV photons, 30 Gy
Protocol: (§1) The details of the procedure of the present example are as follow: 3 mg of adriamycin is irradiated by 50 MV of photons with a dosage of 30 Gy (gray). […] A ^12C atom of the adriamycin molecule is converted into a ^11C positron nuclide and an ^16O atom therein is converted into a ^15O positron nuclide.

SD rats = assay: distribution after tail vein injection of 11C/15O-labeled adriamycin; assay type: in vivo, rat; settings: labeled with 11C and 15O
Protocol: as §1

Row | SMILES | main organ of porphyrin synthesis (porphyrin synthesis) | structure after the irradiation (fluorescence analysis) [1] | site of accumulation in vivo (SD rats)
1 | NCC(=O)CCC(=O)O [5-ALA] | liver is the main organ of porphyrin synthesis | – | –
2 | COc1cccc2c1C(=O)c1c(O)c3c(c(O)c1C2=O)C[C@@](O)(C(=O)CO)C[C@@H]3O[C@H]1C[C@H](N)[C@H](O)[C@H](C)O1 [adriamycin] | – | no change in the structure | accumulates at the heart
